Like-named read-outs stand apart in the source and are kept apart here.
Tests used:
CREBBP (h) bromodomain = target: T1, CREBBP (h) bromodomain (Homo sapiens, UniProt Q92793); assay: Epigenetic binding assay, Bromodomain; conditions: for inhibition at 10 µM: read-out: % Inhibition of Control Specific Binding
T1 construct: Bromodomain; Eurofins CEREP (France), contract laboratory

[1] = target: T2, CYP1A (Phenacetin Substrate) (Homo sapiens, UniProt P05177); assay: Cytochrome P450 Inhibition (CYP panel); assay type: in vitro ADME; conditions: read-out: IC50 (estimated)
T2 sequence (P05177 1-516): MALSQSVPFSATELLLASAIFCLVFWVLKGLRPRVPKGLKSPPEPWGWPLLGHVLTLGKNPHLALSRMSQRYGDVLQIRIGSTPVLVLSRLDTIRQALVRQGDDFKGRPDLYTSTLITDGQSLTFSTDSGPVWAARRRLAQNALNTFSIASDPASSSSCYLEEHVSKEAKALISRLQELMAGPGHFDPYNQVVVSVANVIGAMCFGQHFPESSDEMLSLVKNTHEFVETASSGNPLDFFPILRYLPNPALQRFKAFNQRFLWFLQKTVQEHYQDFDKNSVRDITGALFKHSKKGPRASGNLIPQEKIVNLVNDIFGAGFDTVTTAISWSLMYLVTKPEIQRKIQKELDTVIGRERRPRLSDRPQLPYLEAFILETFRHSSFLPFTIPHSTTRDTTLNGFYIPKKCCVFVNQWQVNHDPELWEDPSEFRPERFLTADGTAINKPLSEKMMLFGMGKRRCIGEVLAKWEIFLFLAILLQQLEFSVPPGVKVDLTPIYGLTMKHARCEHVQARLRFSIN

CYP1A = target: T3, CYP1A (Homo sapiens, UniProt P05177); assay: Cytochrome P450 Inhibition (CYP panel); assay type: in vitro ADME; conditions: probe phenacetin
T3 sequence (P05177 1-516): T2 sequence (P05177 1-516)

ASH1L = ASH1L (Homo sapiens, UniProt Q9NR48); assay: Epigenetic enzyme assay, Methyltransferases (MTs); assay type: biochemical; conditions: for inhibition at 10 µM: read-out: % Inhibition of Control Values
Phospholipase sPLA2-V = target: T4, Phospholipase sPLA2-V (Homo sapiens, UniProt P39877); assay: Phospholipase sPLA2-V; assay type: biochemical; conditions: assay year 2015, read-out: % Control Response
T4 construct: host or cells: E. coli
T4 sequence (P39877 21-138): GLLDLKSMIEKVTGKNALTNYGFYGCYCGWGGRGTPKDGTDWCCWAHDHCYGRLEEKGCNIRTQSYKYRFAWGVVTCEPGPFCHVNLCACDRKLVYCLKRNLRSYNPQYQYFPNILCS
Experimental: The in vitro pharmacological studies were conducted by Eurofins PanLab (Taiwan) using the parameters shown in Table 13 with respect to appropriate literature references.

[2] = target: Rsk2(h) (substrate histone H3 full length) (Homo sapiens, UniProt P51812); assay: Epigenetic enzyme assay, Kinases; assay type: biochemical; conditions: read-out: % Inhibition of Control Values
SETD7 (h) = target: T5, SETD7 (h) (Homo sapiens, UniProt Q8WTS6); assay: Epigenetic enzyme assay, Methyltransferases (MTs); assay type: biochemical; conditions: for inhibition at 10 µM: read-out: % Inhibition of Control Values
T5 sequence (Q8WTS6 1-366): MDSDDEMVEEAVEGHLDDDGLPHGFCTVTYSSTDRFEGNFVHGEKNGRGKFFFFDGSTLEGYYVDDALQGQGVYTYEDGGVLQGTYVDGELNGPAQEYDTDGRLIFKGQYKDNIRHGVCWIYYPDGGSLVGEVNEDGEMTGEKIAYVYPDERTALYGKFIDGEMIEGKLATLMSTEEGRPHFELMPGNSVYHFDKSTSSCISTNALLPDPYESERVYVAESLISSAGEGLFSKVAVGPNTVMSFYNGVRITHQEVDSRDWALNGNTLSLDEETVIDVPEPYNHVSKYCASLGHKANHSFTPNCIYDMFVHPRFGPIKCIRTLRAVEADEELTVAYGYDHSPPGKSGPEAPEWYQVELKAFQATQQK

SUV4-20H2 (h) = SUV4-20H2 (h) (Homo sapiens, UniProt Q86Y97); assay: Epigenetic enzyme assay, Methyltransferases (MTs); assay type: biochemical; conditions: for inhibition at 10 µM: read-out: % Inhibition of Control Values
G9a (h) = target: T6, G9a (h) (Homo sapiens, UniProt Q96KQ7); assay: Epigenetic enzyme assay, Methyltransferases (MTs); assay type: biochemical; conditions: for % Inhibition of Control Values / inhibition at 10 µM: 10 μM; for inhibition at 10 µM: read-out: % Inhibition of Control Values; for IC50: Table 11, inhibition/concentration-response curve
T6 sequence (Q96KQ7 1-1210): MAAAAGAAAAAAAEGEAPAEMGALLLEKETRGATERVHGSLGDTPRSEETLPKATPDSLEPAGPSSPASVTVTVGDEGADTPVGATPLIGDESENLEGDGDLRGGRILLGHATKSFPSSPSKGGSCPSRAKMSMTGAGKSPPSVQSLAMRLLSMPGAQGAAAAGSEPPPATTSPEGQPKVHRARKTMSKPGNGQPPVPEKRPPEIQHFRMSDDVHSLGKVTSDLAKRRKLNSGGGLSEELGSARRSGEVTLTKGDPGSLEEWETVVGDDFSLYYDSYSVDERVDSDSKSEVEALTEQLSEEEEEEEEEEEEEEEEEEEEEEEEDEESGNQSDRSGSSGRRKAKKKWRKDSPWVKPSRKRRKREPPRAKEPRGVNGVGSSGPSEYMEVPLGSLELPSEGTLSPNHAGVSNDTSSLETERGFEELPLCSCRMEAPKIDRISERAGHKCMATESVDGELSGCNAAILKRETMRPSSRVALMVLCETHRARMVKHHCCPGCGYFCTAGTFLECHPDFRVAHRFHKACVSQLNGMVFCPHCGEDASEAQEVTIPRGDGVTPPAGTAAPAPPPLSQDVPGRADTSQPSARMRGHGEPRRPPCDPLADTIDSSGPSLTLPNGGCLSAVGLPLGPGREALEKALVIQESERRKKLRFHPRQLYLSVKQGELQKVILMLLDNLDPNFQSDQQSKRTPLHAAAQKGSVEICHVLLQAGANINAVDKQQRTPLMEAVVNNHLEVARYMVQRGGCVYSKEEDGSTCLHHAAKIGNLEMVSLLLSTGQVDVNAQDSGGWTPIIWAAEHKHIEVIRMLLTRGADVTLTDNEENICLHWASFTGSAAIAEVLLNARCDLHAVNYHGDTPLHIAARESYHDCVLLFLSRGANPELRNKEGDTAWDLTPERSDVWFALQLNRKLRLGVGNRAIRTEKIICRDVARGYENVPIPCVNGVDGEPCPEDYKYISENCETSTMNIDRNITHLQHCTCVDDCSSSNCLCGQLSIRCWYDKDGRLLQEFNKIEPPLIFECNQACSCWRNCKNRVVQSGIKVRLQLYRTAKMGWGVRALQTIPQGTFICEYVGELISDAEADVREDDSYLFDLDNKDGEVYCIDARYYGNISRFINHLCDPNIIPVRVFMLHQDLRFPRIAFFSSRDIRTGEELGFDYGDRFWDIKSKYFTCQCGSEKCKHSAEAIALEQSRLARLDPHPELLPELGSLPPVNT

[3] = human, human liver microsomes, read-out: % inhibition
[4] = CYP1A (phenacetin sub.), Human liver microsomes, read-out: % Inhibition of Control Values

Rsk2(h) (substrate histone H3 full length), sequence (P51812 whole entry): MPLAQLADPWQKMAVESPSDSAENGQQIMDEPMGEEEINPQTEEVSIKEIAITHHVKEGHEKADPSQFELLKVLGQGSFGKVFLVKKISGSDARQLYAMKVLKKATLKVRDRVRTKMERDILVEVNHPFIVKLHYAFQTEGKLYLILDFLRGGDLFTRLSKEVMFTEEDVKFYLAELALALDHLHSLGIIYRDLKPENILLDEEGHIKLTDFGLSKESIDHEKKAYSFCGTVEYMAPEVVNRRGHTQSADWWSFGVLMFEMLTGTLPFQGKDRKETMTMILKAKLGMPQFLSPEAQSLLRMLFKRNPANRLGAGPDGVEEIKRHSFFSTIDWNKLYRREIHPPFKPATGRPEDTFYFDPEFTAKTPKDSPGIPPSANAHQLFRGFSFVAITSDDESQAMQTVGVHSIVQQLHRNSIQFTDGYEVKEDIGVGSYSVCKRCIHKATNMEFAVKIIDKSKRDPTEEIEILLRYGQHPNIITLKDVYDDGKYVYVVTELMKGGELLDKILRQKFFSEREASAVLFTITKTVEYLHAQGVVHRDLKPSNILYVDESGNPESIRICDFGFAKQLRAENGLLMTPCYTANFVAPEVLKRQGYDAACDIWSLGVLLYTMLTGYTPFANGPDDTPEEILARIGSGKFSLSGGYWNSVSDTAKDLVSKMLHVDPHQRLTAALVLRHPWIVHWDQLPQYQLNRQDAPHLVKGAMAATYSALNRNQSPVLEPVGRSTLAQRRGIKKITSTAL
SUV4-20H2 (h), sequence (Q86Y97 whole entry): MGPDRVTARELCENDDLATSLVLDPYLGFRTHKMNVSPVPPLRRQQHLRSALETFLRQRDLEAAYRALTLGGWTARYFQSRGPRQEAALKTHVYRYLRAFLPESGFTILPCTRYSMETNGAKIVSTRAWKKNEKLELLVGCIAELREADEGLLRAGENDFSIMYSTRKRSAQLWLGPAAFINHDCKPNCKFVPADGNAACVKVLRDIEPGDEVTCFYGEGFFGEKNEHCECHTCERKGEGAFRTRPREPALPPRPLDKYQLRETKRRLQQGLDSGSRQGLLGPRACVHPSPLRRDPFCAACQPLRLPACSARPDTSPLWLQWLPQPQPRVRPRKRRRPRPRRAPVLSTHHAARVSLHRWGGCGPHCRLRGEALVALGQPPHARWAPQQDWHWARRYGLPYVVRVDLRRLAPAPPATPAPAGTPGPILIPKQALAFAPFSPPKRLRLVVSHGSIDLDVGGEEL
T1 sequence (Q92793 1085-1192 limits assumed): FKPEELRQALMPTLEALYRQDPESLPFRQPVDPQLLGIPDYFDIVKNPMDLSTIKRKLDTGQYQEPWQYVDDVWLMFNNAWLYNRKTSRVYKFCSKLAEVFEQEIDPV

SMILES	% Inhibition of Control Specific Binding (CREBBP (h) bromodomain; 10 μM)	inhibition at 10 µM (CREBBP (h) bromodomain; 10 μM) [%]	IC50 (CREBBP (h) bromodomain; Table 9, inhibition/concentration-response curve) [µM]	IC50 [1] [µM]	inhibition at 1 µM (CYP1A; [3]) [%]	inhibition at 10 µM (CYP1A; [3]) [%]	inhibition at 1 µM (CYP1A; [4]) [%]	inhibition at 10 µM (CYP1A; [4]) [%]	inhibition at 10 µM (ASH1L) [%]	remaining activity at 10 µM (Phospholipase sPLA2-V) [%]	inhibition at 10 µM [2] [%]	inhibition at 10 µM (SETD7 (h)) [%]	inhibition at 10 µM (SUV4-20H2 (h)) [%]	% Inhibition of Control Values (G9a (h))	inhibition at 10 µM (G9a (h)) [%]	IC50 (G9a (h)) [µM]	IC50 (ASH1L; read-out: Reference IC50) [µM]	IC50 (SETD7 (h); read-out: Reference IC50) [µM]	IC50 (SUV4-20H2 (h); read-out: Reference IC50) [µM]
CC(C)=CCC[C@H](CO)[C@@H]1CC[C@@H](C)c2c1cc(C)c(O)c2O [Compound 1, 7,8,18-trihydroxyserrulat-14-ene]	significant inhibitory activity	65	3.4	< 10	28	63 to 92	28	92	3	4	5	12	11	strong inhibitor	86	11	–	–	–
CC(C)=CCC[C@@H]1C(O)Oc2c(C)cc(O)c3c2[C@H]1CC[C@H]3C (stereo partly drawn) [Compound 2, 5,18-epoxyserrulat-14-en-8,18-diol]	–	21	–	< 10	38	63 to 92	38	63	20	3	7	16	20	weaker	64	5.4	–	–	–
CC(C)=CCC[C@@H]1COc2c(C)cc(O)c3c2[C@H]1CC[C@H]3C [Compound 3, 5,18-epoxy-8-hydroxyserrulat-14-ene]	–	17	–	–	–	–	–	–	-54	0	-4	-2	-45	weaker	49	–	–	–	–
CC(C)=CCC[C@H](C)[C@@H]1CC[C@@H](C)c2c1cc(C)c(O)c2O [Compound 4, 7,8-dihydroxyserrulat-14-ene]	–	–	–	< 10	–	63 to 92	14	85	–	–	–	–	–	–	–	–	–	–	–
Nc1ncnc2c1ncn2[C@@H]1O[C@H](CSCC[C@H](N)C(=O)O)[C@@H](O)[C@H]1O [SAH]	–	–	–	–	–	–	–	–	–	–	–	–	–	–	–	–	9.1	24	4.7

Source: US11331299B2, “Medicinal use of serrulatane diterpenes” (The University of Sydney, priority 2016, dated 2022)
